The text below walks through data of ChEMBL document CHEMBL4613246, “Antimycobacterial Rufomycin Analogues from Streptomyces atratus Strain MJM3502” (J Nat Prod, 2020).

In brackets after ≈: the same amount, converted by molar mass. Starred links: 1 amine or outer side, 2 acyl side, 3 side chain; linkers in the order of their positions; H or OH if unused. Non-standard residues stand in square brackets, D forms with d. Residues, ends and D or L forms follow the SMILES beside them. Trp(1-CMe2(2S-oxiranyl)) = CC(C)([C@H]1CO1)n1cc(C[C@H](N)C(=O)O)c2ccccc21; Trp(1-(1,1-Me2-allyl)) = C=CC(C)(C)n1cc(C[C@H](N)C(=O)O)c2ccccc21; X3 = CC(C)([C@H](O)CCl)n1cc(C[C@H](N[*:1])C(=O)[*:2])c2ccccc21; Tyr(3-NO2) = N[C@@H](Cc1ccc(O)c([N+](=O)[O-])c1)C(=O)O; NMeLeu(5-OH,4R) = CN[C@@H](C[C@@H](C)CO)C(=O)O; X1 = COC(OC)C(C)C[C@@H](C(=O)[*:2])N(C)[*:1]; X2 = C[C@H](CO)C[C@@H](C(=O)[*:2])N(C)[*:1]; Gly(E-crotyl) = C/C=C/C[C@H](N)C(=O)O; NMeL = CN[C@@H](CC(C)C)C(=O)O Where only a bound is given, the exact number is not on record here.

Assay [1] deals with Mycobacterium tuberculosis. The experiment in a line: Antimycobacterial activity against nonreplicating Mycobacterium tuberculosis H37Rv under hypoxic condition by fluorescence based assay. In kind it is functional.
In assay [2] the test system is Mycobacterium tuberculosis. Kind of assay: Antimycobacterial activity against Mycobacterium tuberculosis H37Rv assessed as reduction in microbial growth after 7 days by alamar blue assay. In kind it is functional. Conditions: 168 h. In general terms: The colour change of resazurin is a common sign of viable cells or microbes.
Assay [3] addresses T1, ATP-dependent Clp protease ATP-binding subunit ClpC1 (Mycobacterium tuberculosis, UniProt P9WPC9). The experiment in a line: Binding affinity to recombinant full length Mycobacterium tuberculosis H37Rv ClpC1 (1 to 842 residues) expressed in Escherichia coli BL21 cells by surface plasmon resonance analysis. (SPR reads the build-up and loss of mass on a sensor chip optically.)

Assay [4] addresses T1, ATP-dependent Clp protease ATP-binding subunit ClpC1. The experiment in a line: Binding affinity to recombinant Mycobacterium tuberculosis H37Rv N-terminal His6-tagged ClpC1 (1 to 145 residues) expressed in Escherichia coli BL21 cells by surface plasmon resonance analysis.
In assay [5] the test system is Mycobacteroides abscessus. The experiment in a line: Antimycobacterial activity against Mycobacterium abscessus ATCC 19977 assessed as reduction in microbial growth after 7 days by alamar blue assay. In kind it is functional. The following applies: ATCC 19977, 168 h.
The test system of another assay is Vero. The experiment in a line: cells. Conditions: Chlorocebus sabaeus.

T1 sequence (P9WPC9 whole entry, the tested form may be a part): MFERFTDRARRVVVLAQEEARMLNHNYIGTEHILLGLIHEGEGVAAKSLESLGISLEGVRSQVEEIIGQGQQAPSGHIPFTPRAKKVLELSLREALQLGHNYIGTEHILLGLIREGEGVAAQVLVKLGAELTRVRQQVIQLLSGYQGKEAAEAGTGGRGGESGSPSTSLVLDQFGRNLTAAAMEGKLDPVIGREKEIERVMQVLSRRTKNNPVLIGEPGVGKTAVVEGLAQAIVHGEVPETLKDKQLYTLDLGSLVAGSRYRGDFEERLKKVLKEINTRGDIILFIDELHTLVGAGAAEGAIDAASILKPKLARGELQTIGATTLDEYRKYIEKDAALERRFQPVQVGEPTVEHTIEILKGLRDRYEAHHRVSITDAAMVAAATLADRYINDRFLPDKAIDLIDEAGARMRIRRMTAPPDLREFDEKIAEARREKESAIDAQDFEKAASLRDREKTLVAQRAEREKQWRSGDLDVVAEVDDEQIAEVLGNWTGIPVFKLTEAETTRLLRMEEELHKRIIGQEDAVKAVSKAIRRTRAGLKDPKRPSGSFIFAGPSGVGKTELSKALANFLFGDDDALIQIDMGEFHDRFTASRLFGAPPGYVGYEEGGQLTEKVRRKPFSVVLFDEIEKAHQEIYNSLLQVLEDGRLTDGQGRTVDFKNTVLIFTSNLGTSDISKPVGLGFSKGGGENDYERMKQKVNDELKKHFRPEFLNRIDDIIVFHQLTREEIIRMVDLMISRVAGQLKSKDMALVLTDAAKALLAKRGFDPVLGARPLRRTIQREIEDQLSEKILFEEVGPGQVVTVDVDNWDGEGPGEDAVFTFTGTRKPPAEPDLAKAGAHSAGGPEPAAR
Description for Vero: Cytotoxicity against African green monkey Vero cells

Take `C=CC(C)(C)n1cc(C[C@@H]2NC(=O)[C@H](CC(C)C)N(C)C2=O)c2ccccc21`: the minimal inhibitory concentration (MIC) in assay [1] was 4 to 10 µM (≈ 1.53 to 3.82 µg/mL); in assay [2], > 10 µM.
Turning to `C/C=C/C[C@@H]1NC(=O)[C@H](CC(C)C)N2C(=O)[C@H](C[C@](C)(O)[C@H]2O)N(C)C(=O)[C@H](C)NC(=O)[C@H](Cc2ccc(O)c([N+](=O)[O-])c2)NC(=O)[C@H](CC(C)C)N(C)C(=O)[C@H](Cc2cn(C(C)(C)[C@H]3CO3)c3ccccc23)NC1=O`, the Kd in assay [3] is 50 nM; in assay [4], 60 nM. For the same compound, the MIC is 4 to 10 µM (≈ 4.23 to 10.6 µg/mL) in assay [1] and 0.03 µM in assay [2].
As to `C/C=C/C[C@@H]1NC(=O)[C@H](CC(C)C)N2C(=O)[C@H](CC(C)[C@H]2O)N(C)C(=O)[C@H](C)NC(=O)[C@H](Cc2ccc(O)c([N+](=O)[O-])c2)NC(=O)[C@H](CC(C)C)N(C)C(=O)[C@H](Cc2cn(C(C)(C)[C@H]3CO3)c3ccccc23)NC1=O` (stereo not given in full), the MIC in assay [5] was 0.29 µM; in assay [1] it was 4 to 10 µM (≈ 4.17 to 10.4 µg/mL); in assay [2], 0.02 µM. In addition, the Kd in assay [3] and in assay [4] was 60 nM in each case.
As for `C/C=C/C[C@@H]1NC(=O)[C@H](CC(C)C)N2C(=O)[C@H](C[C@@H](C)[C@H]2O)N(C)C(=O)[C@H](C)NC(=O)[C@H](Cc2ccc(O)c([N+](=O)[O-])c2)NC(=O)[C@H](CC(C)C)N(C)C(=O)[C@H](Cc2cn(C(C)(C)[C@H](O)CO)c3ccccc23)NC1=O`, the equilibrium dissociation constant (Kd) in assay [3] is 280 nM; in assay [4] it was 300 nM. The MIC in assay [1] is 4 to 10 µM (≈ 4.24 to 10.6 µg/mL); in assay [2], 0.1 µM.
The matching figures for `C=CC(C)(C)n1cc(C[C@@H]2NC(=O)[C@H](C/C=C/C)NC(=O)[C@H](CC(C)C)NC(=O)[C@H](CC(C)C)N(C)C(=O)[C@H](C)NC(=O)[C@H](Cc3ccc(O)cc3)NC(=O)[C@H](CC(C)C)N(C)C2=O)c2ccccc21` (HELM PEPTIDE1{A.[meL].L.[C/C=C/C[C@H](N[*:1])C(=O)[*:2]].[C=CC(C)(C)n1cc(C[C@H](N[*:1])C(=O)[*:2])c2ccccc21].[meL].Y}$PEPTIDE1,PEPTIDE1,1:R1-7:R2$$$V2.0): 5700 nM, 1200 nM, 4 to 10 µM (≈ 3.87 to 9.67 µg/mL) and > 10 µM.
The like results for `C=CC(C)(C)n1cc(C[C@@H]2NC(=O)[C@H](C/C=C/C)NC(=O)[C@H](CC(C)C)NC(=O)[C@H](CC(C)C)N(C)C(=O)[C@H](C)NC(=O)[C@H](Cc3ccc(O)c([N+](=O)[O-])c3)NC(=O)[C@H](CC(C)C)N(C)C2=O)c2ccccc21` (cyclo(A[NMeL]L[Gly(E-crotyl)][Trp(1-(1,1-Me2-allyl))][NMeL][Tyr(3-NO2)])) were, in that order, 3200 nM, 1200 nM, 4 to 10 µM (≈ 4.05 to 10.1 µg/mL) and 1.7 µM.
Consider `C/C=C/C[C@@H]1NC(=O)[C@H](CC(C)C)NC(=O)[C@H](CC(C)C)N(C)C(=O)[C@H](C)NC(=O)[C@H](Cc2ccc(O)c([N+](=O)[O-])c2)NC(=O)[C@H](CC(C)C)NC(=O)[C@H](Cc2cn(C(C)(C)[C@H]3CO3)c3ccccc23)NC1=O` (cyclo(A[NMeL]L[Gly(E-crotyl)][Trp(1-CMe2(2S-oxiranyl))]L[Tyr(3-NO2)])), for which the Kd in assay [3] turned out to be 1500 nM. In addition, the MIC in assay [1] was 4 to 10 µM (≈ 4.06 to 10.1 µg/mL); in assay [2], 0.57 µM.
For the compound `C/C=C/C[C@@H]1NC(=O)[C@H](CC(C)C)NC(=O)[C@H](CC(C)C)N(C)C(=O)[C@H](C)NC(=O)[C@H](Cc2ccc(O)c([N+](=O)[O-])c2)NC(=O)[C@H](CC(C)C)N(C)C(=O)[C@H](Cc2cn(C(C)(C)[C@H]3CO3)c3ccccc23)NC1=O` (cyclo(A[NMeL]L[Gly(E-crotyl)][Trp(1-CMe2(2S-oxiranyl))][NMeL][Tyr(3-NO2)])), the Kd in assay [3] came to 540 nM; in assay [4], 1700 nM. Moreover, the minimal inhibitory concentration (MIC) in assay [1] was 4 to 10 µM (≈ 4.11 to 10.3 µg/mL); in assay [2] it was 0.2 µM.
Turning to `C/C=C/C[C@@H]1NC(=O)[C@H](CC(C)C)NC(=O)[C@H](CC(C)C)N(C)C(=O)[C@H](C)NC(=O)[C@H](Cc2ccc(O)c([N+](=O)[O-])c2)NC(=O)[C@H](CC(C)C)N(C)C(=O)[C@H](Cc2cn(C(C)(C)[C@H](O)CCl)c3ccccc23)NC1=O` (cyclo(A[NMeL]L[Gly(E-crotyl)][X3][NMeL][Tyr(3-NO2)])), the Kd in assay [3] and in assay [4] was 1500 nM throughout. In assay [1], this compound registered an MIC of 4 to 10 µM (≈ 4.26 to 10.6 µg/mL).
As to `C/C=C/C[C@@H]1NC(=O)[C@H](CC(C)C)NC(=O)[C@H](C[C@@H](C)CO)N(C)C(=O)[C@H](C)NC(=O)[C@H](Cc2ccc(O)c([N+](=O)[O-])c2)NC(=O)[C@H](CC(C)C)N(C)C(=O)[C@H](Cc2cn(C(C)(C)[C@H]3CO3)c3ccccc23)NC1=O` (cyclo(A[NMeLeu(5-OH,4R)]L[Gly(E-crotyl)][Trp(1-CMe2(2S-oxiranyl))][NMeL][Tyr(3-NO2)])), the Kd amounted to 1300 nM in assay [3] and 1600 nM in assay [4]. Moreover, the MIC was 4 to 10 µM (≈ 4.18 to 10.4 µg/mL) in assay [1] and 0.44 µM in assay [2].
For `C/C=C/C[C@@H]1NC(=O)[C@H](CC(C)C)NC(=O)[C@H](CC(C)C(OC)OC)N(C)C(=O)[C@H](C)NC(=O)[C@H](Cc2ccc(O)c([N+](=O)[O-])c2)NC(=O)[C@H](CC(C)C)N(C)C(=O)[C@H](Cc2cn(C(C)(C)[C@H]3CO3)c3ccccc23)NC1=O` (stereo partly drawn) (cyclo(A[X1]L[Gly(E-crotyl)][Trp(1-CMe2(2S-oxiranyl))][NMeL][Tyr(3-NO2)])), the Kd in assay [3] stood at 450 nM; in assay [4], 310 nM. Besides, the figures for the MIC in assay [1] and in assay [2] were 4 to 10 µM (≈ 4.35 to 10.9 µg/mL) and 0.11 µM, respectively.
The matching figures for `C=CC(C)(C)n1cc(C[C@@H]2NC(=O)[C@H](C/C=C/C)NC(=O)[C@H](CC(C)C)NC(=O)[C@H](C[C@H](C)CO)N(C)C(=O)[C@H](C)NC(=O)[C@H](Cc3ccc(O)c([N+](=O)[O-])c3)NC(=O)[C@H](CC(C)C)N(C)C2=O)c2ccccc21` (cyclo(A[X2]L[Gly(E-crotyl)][Trp(1-(1,1-Me2-allyl))][NMeL][Tyr(3-NO2)])): 1100 nM, 1100 nM, 4 to 10 µM (≈ 4.11 to 10.3 µg/mL) and 0.84 µM.
In the case of `C/C=C/C[C@@H]1NC(=O)[C@H](CC(C)C)NC(=O)[C@H](C[C@H](C)CO)N(C)C(=O)[C@H](C)NC(=O)[C@H](Cc2ccc(O)c([N+](=O)[O-])c2)NC(=O)[C@H](CC(C)C)N(C)C(=O)[C@H](Cc2cn(C(C)(C)[C@H]3CO3)c3ccccc23)NC1=O` (cyclo(A[X2]L[Gly(E-crotyl)][Trp(1-CMe2(2S-oxiranyl))][NMeL][Tyr(3-NO2)])), the equilibrium dissociation constant (Kd) in assay [3] worked out at 500 nM; in assay [4], 620 nM. Besides, the MIC in assay [1] was 4 to 10 µM (≈ 4.18 to 10.4 µg/mL); in assay [2], 0.25 µM.
In the case of `NNC(=O)c1ccncc1` [ISONIAZID], the MIC in assay [5] was > 8 µM; in assay [2], 0.46 µM. In addition, in the assay on Vero, the IC50 is > 50000 nM.
As for `CO[C@H]1/C=C/O[C@@]2(C)Oc3c(C)c(O)c4c(O)c(c(/C=N/N5CCN(C)CC5)c(O)c4c3C2=O)NC(=O)/C(C)=C\C=C\[C@H](C)[C@H](O)[C@@H](C)[C@@H](O)[C@@H](C)[C@H](OC(C)=O)[C@@H]1C` [RIFAMPIN], the MIC in assay [5] was > 4 µM; in assay [2], 0.03 µM. In the assay with Vero, the IC50 is > 122000 nM.

A word on the MIC: it is the least concentration at which growth counts as inhibited. The term Kd denotes the equilibrium constant for the complex coming apart. A word on the IC50: it is the point on the concentration scale where inhibition reaches its midpoint. A low value points to inhibition by little substance.
